Legend:
Format in all cases: cell-based
ABCC6 WT = target: T1, ABCC6 WT (Homo sapiens, UniProt O95255); assay: ABCC6 WT assay: HiBit protein expression; conditions: HEK-293 cells transiently expressing HiBit-tagged ABCC6 WT; 24 h treatment; top concentration 20 μM; read-out: ABCC6 WT EC50, Emax
T1 construct: expressed in transfected cells; host or cells: HEK-293 (transient, Lipofectamine 2000)
How it was run: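 HEK-293 cells transiently transfected with HiBit-tagged human ABCC6 WT cDNA, seeded 24 h post-transfection, treated 24 h at 37° C with ten 2-fold doses (top 20 μM final, 0.15% DMSO). HiBit lytic luminescence reports protein expression; Emax and EC50 derived.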

ABCA4 P1380L = target: T2, ABCA4 P1380L (Homo sapiens, UniProt P78363, P1380L); assay: A4 correction dose-response assay: ABCA4 P1380L HiBit protein expression; conditions: HEK-293 cells stably expressing HiBit-tagged ABCA4 P1380L; 24 h treatment; top concentration 30 μM; read-out: ABCA4 P1380L EC50, Emax
T2 construct: expressed in transfected cells
T2 sequence (P78363 whole entry P1380L): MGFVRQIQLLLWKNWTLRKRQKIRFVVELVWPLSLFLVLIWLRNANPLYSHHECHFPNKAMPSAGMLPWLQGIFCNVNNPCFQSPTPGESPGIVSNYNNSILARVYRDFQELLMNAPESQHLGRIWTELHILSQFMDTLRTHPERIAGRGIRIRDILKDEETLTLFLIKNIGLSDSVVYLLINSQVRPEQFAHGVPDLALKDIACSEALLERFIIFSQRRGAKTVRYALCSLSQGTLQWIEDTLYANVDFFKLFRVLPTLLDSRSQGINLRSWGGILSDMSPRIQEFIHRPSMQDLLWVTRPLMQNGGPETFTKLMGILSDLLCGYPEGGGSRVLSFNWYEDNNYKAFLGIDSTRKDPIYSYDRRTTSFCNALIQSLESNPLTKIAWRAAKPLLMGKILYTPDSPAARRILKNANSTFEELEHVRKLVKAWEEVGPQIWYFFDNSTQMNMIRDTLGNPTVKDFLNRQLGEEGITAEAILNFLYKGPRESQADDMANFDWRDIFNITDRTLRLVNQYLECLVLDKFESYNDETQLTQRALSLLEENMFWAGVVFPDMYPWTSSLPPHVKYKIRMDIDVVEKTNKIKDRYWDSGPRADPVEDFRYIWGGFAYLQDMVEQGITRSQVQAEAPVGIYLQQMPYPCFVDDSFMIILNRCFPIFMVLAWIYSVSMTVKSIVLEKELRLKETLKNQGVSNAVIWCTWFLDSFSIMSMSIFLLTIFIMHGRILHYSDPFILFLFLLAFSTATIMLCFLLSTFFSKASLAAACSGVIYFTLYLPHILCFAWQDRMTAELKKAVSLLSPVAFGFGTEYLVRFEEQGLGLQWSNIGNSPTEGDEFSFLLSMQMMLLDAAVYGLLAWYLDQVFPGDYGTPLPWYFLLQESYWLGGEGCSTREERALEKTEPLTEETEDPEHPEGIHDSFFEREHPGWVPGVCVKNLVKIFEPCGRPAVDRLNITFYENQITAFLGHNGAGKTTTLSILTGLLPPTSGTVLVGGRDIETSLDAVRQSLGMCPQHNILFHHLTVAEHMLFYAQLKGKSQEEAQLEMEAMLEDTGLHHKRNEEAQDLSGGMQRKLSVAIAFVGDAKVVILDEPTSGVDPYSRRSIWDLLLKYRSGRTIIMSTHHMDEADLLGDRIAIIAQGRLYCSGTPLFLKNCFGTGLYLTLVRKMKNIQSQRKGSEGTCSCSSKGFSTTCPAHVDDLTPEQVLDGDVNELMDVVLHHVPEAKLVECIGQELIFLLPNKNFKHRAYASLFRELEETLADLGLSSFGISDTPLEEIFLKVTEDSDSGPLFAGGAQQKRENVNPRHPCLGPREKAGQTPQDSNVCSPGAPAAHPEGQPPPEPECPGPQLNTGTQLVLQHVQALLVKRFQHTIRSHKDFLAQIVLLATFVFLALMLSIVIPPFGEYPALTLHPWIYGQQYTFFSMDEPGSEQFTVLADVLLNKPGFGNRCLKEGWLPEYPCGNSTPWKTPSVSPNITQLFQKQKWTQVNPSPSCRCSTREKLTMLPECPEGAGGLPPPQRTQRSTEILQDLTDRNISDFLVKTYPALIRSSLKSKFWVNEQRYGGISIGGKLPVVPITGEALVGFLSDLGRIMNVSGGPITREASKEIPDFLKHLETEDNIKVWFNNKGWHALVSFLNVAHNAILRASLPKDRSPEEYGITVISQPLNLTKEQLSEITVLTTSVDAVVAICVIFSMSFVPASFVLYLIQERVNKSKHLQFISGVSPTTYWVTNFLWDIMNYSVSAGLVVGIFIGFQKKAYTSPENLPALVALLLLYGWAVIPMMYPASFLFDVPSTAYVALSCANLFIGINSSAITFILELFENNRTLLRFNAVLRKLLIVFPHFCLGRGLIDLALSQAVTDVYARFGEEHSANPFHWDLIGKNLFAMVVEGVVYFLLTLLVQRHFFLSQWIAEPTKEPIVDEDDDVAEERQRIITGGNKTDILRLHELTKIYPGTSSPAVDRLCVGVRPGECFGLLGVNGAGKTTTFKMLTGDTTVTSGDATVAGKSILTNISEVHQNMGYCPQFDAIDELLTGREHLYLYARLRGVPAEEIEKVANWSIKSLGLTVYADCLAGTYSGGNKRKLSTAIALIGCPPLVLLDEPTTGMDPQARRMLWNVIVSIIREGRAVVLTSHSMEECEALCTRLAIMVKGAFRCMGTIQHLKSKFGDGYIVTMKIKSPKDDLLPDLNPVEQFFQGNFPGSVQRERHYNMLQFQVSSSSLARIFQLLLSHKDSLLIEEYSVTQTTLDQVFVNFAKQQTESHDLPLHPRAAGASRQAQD
How it was run: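 Cells transfected with HiBit-tagged human ABCA4 P1380L cDNA were treated for 24 h at 37°C with an eleven-point dilution series (top final 30 μM, 0.3% DMSO).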

ABCB4 WT = target: T3, ABCB4 WT (Homo sapiens, UniProt P21439); assay: ABCB4 WT assay: HiBit protein expression; conditions: HEK-293 cells stably expressing HiBit-tagged ABCB4 WT; 24 h treatment; top concentration 30 μM; read-out: ABCB4 WT EC50, Emax
T3 construct: expressed in transfected cells
T3 sequence (P21439 whole entry): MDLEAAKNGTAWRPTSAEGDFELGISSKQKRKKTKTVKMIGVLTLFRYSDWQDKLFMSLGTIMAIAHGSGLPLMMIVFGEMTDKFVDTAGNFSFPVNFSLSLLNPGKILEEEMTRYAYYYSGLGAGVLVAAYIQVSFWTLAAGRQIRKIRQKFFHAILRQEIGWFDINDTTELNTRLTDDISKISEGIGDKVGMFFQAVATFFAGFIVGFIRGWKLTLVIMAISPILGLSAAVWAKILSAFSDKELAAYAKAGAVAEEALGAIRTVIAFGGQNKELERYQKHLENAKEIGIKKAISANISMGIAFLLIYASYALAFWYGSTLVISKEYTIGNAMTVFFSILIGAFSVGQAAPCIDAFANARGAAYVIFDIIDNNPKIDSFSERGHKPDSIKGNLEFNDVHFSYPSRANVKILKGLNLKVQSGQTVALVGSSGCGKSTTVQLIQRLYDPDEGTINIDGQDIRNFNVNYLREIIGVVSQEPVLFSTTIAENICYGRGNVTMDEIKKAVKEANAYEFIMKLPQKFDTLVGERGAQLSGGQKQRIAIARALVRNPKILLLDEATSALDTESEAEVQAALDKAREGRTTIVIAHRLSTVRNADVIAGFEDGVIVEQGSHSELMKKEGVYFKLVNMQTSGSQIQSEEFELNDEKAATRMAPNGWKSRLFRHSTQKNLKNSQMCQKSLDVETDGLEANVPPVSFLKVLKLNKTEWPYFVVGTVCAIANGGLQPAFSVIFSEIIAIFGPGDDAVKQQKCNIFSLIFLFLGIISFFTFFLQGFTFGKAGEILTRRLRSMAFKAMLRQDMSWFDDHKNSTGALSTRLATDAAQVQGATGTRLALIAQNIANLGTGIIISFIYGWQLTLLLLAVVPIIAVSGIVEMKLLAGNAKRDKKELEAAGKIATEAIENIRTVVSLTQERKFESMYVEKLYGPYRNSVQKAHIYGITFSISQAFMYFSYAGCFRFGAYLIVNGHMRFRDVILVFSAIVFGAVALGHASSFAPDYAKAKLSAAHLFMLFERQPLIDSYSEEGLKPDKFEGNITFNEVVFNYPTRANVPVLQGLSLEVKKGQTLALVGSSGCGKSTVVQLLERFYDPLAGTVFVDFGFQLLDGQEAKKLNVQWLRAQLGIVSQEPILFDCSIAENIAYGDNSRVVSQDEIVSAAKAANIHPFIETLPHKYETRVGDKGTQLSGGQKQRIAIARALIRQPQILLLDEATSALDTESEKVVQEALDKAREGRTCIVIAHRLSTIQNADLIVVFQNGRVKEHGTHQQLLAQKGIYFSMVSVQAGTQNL
How it was run: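 HEK-293 cells stably expressing HiBit-tagged human ABCB4 WT, treated 24 h at 37 °C with 11-dose 3-fold dilutions, top final 30 μM in 0.3% DMSO. HiBit lytic reagent luminescence read after 1 h at 25 °C; Emax and EC50 derived.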

T1 sequence (O95255 whole entry): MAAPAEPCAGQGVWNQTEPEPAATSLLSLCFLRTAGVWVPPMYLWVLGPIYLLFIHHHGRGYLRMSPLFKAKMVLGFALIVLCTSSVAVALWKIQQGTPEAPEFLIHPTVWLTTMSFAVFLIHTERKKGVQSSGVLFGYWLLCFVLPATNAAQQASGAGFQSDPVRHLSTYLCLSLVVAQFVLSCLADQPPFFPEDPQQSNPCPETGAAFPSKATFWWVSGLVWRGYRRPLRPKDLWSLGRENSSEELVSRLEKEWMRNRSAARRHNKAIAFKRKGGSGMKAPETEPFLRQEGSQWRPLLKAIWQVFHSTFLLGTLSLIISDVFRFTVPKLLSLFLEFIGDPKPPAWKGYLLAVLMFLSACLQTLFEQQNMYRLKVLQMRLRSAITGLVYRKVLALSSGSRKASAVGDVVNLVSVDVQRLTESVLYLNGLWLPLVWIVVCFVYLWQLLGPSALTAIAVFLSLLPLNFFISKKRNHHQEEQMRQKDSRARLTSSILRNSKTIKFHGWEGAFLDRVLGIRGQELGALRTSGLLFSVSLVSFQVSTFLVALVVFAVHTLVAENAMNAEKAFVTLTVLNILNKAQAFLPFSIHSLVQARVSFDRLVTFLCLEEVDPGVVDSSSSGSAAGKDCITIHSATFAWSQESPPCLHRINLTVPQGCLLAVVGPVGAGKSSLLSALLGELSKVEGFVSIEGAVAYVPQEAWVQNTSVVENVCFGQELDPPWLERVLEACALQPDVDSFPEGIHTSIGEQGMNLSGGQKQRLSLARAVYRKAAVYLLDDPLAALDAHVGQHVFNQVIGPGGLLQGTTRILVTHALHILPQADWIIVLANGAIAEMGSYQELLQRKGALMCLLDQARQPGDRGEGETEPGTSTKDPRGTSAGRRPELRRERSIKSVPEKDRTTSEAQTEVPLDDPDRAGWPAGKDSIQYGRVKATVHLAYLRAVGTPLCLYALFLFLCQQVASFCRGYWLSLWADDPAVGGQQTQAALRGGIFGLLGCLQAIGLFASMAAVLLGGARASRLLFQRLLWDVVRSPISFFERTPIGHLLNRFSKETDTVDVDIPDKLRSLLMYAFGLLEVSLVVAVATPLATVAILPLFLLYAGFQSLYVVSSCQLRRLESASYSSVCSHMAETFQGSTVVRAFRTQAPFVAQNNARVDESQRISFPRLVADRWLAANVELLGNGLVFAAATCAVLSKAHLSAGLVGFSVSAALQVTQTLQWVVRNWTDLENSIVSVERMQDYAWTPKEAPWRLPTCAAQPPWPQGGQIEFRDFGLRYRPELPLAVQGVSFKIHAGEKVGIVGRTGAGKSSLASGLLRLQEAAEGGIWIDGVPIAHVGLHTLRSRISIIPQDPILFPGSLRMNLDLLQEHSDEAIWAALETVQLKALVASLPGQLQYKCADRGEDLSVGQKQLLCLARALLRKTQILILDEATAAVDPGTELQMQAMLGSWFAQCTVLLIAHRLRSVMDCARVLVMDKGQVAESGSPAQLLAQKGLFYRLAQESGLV

SMILES	EC50 (ABCC6 WT) [nM]	EC50 (ABCA4 P1380L) [nM]	EC50 (ABCB4 WT) [nM]
Cc1nc(C)c(C2CC2)cc1Oc1nc(-c2cncc(C#N)c2)ccc1NS(C)(=O)=O [Compound I-229]	1000 to 10000	1000 to 10000	< 25000
Cc1cc(C)c(Oc2nc(-c3cncc(C4CC4)c3)ccc2NS(C)(=O)=O)c(C)n1 [Compound I-232]	< 1000	< 25000	< 25000
Cc1nc(C)c(Oc2nc(-c3cncc(C#N)c3)ccc2NS(C)(=O)=O)c(C)n1 [Compound I-234]	< 1000	< 1000	1000 to 10000
Cc1cc(C2CC2)nc(C)c1Oc1nc(-c2cncc(C#N)c2)ccc1NS(=O)(=O)C1COC1 [Compound I-235]	< 1000	< 25000	< 25000
Cc1cc(C2CC2)nc(C)c1Oc1nc(-c2cncc(Cl)c2)ccc1NS(=O)(=O)C1COC1 [Compound I-236]	< 1000	< 25000	< 25000
Cc1cc(C)c(Oc2nc(-c3cncc(Cl)c3)ccc2NS(=O)(=O)C2COC2)c(C)n1 [Compound I-237]	< 1000	< 1000	< 25000

Next, values leading:

EC50 (ABCC6 WT) [nM]	EC50 (ABCA4 P1380L) [nM]	EC50 (ABCB4 WT) [nM]	SMILES
< 1000	< 1000	< 25000	Cc1cc(C)c(Oc2nc(-c3cncc(C#N)c3)ccc2NS(=O)(=O)C2COC2)c(C)n1 [Compound I-228]
< 1000	< 1000	< 1000	Cc1cc(C(F)F)nc(C)c1Oc1nc(-c2cncc(C#N)c2)ccc1NS(C)(=O)=O [Compound I-230]
< 1000	1000 to 10000	1000 to 10000	COCc1cncc(-c2ccc(NS(C)(=O)=O)c(Oc3c(C)cc(C)nc3C)n2)c1 [Compound I-231]
